Data as given in patent publication US8536168B2 (Novartis AG, priority 2007, dated 2013).
Like-named read-outs stand apart in the source and are kept apart here.

Columns and labels:
[1] = target: human Smoothened receptor (Homo sapiens, UniProt Q99835); assay: Smo binding assay, displacement of radio-labeled smoothened agonist, filter binding format (human); details: displacement of small molecule agonist of Smoothened, read-out: Human Smo bdg., IC50
From the text: A Smo binding assay was developed using radio-labeled smoothened agonist for compound competition. Table 9 lists the IC50 for displacement of a small molecule agonist of Smoothened determined in a filter binding format for the mouse and human Smoothened receptor.

[2] = tested on: Gli-luciferase activity; assay: Reporter gene assay (RGA) in TMHh12 cells, antagonism of Gli-luciferase activity in the presence of a Smo agonist; assay type: cell-based
Protocol: Activity of the compounds was evaluated using a reporter gene assay (RGA) in TMHh12 cells.

[3] = target: mouse Smoothened receptor (Mus musculus, UniProt P56726); assay: Smo binding assay, displacement of radio-labeled smoothened agonist, filter binding format (mouse); details: displacement of small molecule agonist of Smoothened, read-out: Mouse Smo bdg., IC50
From the text: A Smo binding assay was developed using radio-labeled smoothened agonist for compound competition.

[4] = 25 nM small molecule Smo agonist, read-out: RGA (25 nM Smo agonist) IC50
[5] = read-out: RGA (1 nM Smo agonist) IC50, 1 nM small molecule Smo agonist

Sequence of human Smoothened receptor (Q99835 28-787): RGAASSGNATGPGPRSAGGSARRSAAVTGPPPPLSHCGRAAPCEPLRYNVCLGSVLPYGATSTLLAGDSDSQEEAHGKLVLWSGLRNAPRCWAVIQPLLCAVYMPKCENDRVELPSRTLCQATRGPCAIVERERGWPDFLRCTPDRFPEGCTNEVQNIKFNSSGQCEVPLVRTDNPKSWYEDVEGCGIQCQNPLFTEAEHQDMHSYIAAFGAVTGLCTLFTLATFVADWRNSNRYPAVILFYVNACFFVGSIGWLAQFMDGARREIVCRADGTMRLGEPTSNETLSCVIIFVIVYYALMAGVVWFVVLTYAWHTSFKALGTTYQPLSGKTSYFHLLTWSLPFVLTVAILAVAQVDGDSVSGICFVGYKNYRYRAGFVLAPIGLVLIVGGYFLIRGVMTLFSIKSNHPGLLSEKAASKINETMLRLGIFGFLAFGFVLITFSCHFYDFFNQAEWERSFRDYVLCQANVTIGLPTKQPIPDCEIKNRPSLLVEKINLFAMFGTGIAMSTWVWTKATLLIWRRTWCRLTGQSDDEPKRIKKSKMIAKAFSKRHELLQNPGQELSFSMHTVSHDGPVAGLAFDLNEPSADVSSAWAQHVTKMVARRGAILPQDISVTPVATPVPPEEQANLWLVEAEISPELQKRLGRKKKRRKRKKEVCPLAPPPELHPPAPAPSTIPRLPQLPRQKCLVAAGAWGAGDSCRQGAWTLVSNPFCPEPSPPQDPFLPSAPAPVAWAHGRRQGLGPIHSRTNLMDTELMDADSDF
Sequence of mouse Smoothened receptor (P56726 33-793): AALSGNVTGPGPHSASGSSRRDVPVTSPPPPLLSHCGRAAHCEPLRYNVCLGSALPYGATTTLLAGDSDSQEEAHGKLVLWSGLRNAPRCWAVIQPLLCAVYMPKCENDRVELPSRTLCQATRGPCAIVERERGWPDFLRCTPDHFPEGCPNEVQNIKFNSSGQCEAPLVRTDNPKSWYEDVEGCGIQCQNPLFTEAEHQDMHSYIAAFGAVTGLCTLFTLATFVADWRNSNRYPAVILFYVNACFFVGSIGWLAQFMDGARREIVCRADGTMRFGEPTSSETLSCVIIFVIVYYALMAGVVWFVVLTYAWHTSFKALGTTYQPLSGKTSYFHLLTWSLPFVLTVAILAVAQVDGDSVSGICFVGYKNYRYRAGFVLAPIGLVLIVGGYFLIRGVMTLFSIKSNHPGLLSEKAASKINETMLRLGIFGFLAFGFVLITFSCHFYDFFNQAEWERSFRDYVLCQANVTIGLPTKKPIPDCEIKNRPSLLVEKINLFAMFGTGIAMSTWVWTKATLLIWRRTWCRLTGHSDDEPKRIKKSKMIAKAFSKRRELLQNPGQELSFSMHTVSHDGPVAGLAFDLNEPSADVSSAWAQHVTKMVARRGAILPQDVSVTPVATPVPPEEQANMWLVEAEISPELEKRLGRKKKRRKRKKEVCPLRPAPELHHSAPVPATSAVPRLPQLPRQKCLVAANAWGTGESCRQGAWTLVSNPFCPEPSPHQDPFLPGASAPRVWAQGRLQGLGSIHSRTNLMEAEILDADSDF

Row | SMILES | IC50 [1] | IC50 [2, 4] | IC50 [2, 5] | IC50 [3]
1 | N#Cc1ccc(N2CCN(c3nnc(Cc4ccccc4)c4ccccc34)CC2)nc1 [Example 1, 6-[4-(4-Benzyl-phthalazin-1-yl)-piperazin-1-yl]-nicotinonitrile] | 100 to 1000 nM | 1000 to 10000 nM | < 100 nM | < 100 nM
2 | FC(F)(F)c1ccc(N2CCN(c3nnc(Cc4ccccc4)c4ccccc34)CC2)nc1 [Example 2] | < 100 nM | 100 to 1000 nM | < 100 nM | < 100 nM
3 | CCOC(=O)c1ccc(N2CCN(c3nnc(Cc4ccccc4)c4ccccc34)CC2)cc1 [Example 5] | < 100 nM | 100 to 1000 nM | < 100 nM | < 100 nM
4 | O=C(O)c1ccc(N2CCN(c3nnc(Cc4ccccc4)c4ccccc34)CC2)cc1 [Example 16] | 1000 to 10000 nM | 1000 to 10000 nM | 1000 to 10000 nM | 1000 to 10000 nM
5 | N#Cc1cnc(N2CCN(c3nnc(Cc4ccccc4)c4ccccc34)CC2)nc1 [Example 39, 2-[4-(4-Benzyl-phthalazin-1-yl)-piperazin-1-yl]-pyrimidine-5-carbonitrile] | 100 to 1000 nM | 100 to 1000 nM | < 100 nM | 100 to 1000 nM
6 | COc1cc(=O)[nH]c(N2CCN(c3nnc(Cc4ccccc4)c4ccccc34)CC2)n1 [Example 46] | 100 to 1000 nM | 10000 to 40000 nM | 1000 to 10000 nM | 100 to 1000 nM
7 | Cc1cc(C)nc(N2CCN(c3nnc(Cc4ccccc4)c4ccccc34)CC2)n1 [Example 48] | 100 to 1000 nM | 1000 to 10000 nM | < 100 nM | < 100 nM
8 | Fc1cc(Cl)cnc1N1CCN(c2nnc(Cc3ccccc3)c3ccccc23)CC1 [Example 49] | 100 to 1000 nM | 100 to 1000 nM | < 100 nM | 100 to 1000 nM
9 | FC(F)(F)c1ccnc(N2CCN(c3nnc(Cc4ccccc4)c4ccccc34)CC2)n1 [Example 50] | 100 to 1000 nM | 100 to 1000 nM | < 100 nM | 100 to 1000 nM
10 | Fc1cnc(F)c(N2CCN(c3nnc(Cc4ccccc4)c4ccccc34)CC2)c1 [Example 51] | 1000 to 10000 nM | 1000 to 10000 nM | 100 to 1000 nM | 1000 to 10000 nM
11 | Fc1cnc(N2CCN(c3nnc(Cc4ccccc4)c4ccccc34)CC2)c(F)c1 [Example 52] | 100 to 1000 nM | 1000 to 10000 nM | 100 to 1000 nM | 100 to 1000 nM
12 | NC(=O)c1ccc(N2CCN(c3nnc(Cc4ccccc4)c4ccccc34)CC2)nc1 [Example 53] | 100 to 1000 nM | 100 to 1000 nM | < 100 nM | 100 to 1000 nM
13 | CCOC(=O)c1ccc(N2CCN(c3nnc(Cc4ccccc4)c4ccccc34)CC2)nc1 [Example 54] | < 100 nM | 100 to 1000 nM | < 100 nM | < 100 nM
14 | NCc1ccc(N2CCN(c3nnc(Cc4ccccc4)c4ccccc34)CC2)cc1 [Example 73] | – | 1000 to 10000 nM | 100 to 1000 nM | 100 to 1000 nM
15 | CC(=O)NCc1ccc(N2CCN(c3nnc(Cc4ccccc4)c4ccccc34)CC2)cc1 [Example 75] | – | 1000 to 10000 nM | 100 to 1000 nM | 100 to 1000 nM
16 | CC(=O)NCc1ccc(N2CCN(c3nnc(Cc4ccncc4)c4ccccc34)CC2)cc1 [Example 76] | – | 10000 to 40000 nM | 1000 to 10000 nM | 10000 to 40000 nM
17 | O=C(NCc1ccc(N2CCN(c3nnc(Cc4ccccc4)c4ccccc34)CC2)cc1)OCc1ccccc1 [Example 77] | – | 1000 to 10000 nM | 100 to 1000 nM | 100 to 1000 nM
18 | O=C(NCc1ccc(N2CCN(c3nnc(Cc4ccncc4)c4ccccc34)CC2)cc1)OCc1ccccc1 [Example 78] | – | 10000 to 40000 nM | 1000 to 10000 nM | 1000 to 10000 nM
19 | Cc1cc(N2CCN(c3ccc(C#N)cn3)CC2)nnc1Cc1ccc(Cl)cc1 [Example 93] | – | – | 100 to 1000 nM | < 100 nM
20 | COC(=O)c1cnc(N2CCN(c3nnc(Cc4ccccc4)c4ccccc34)CC2)nc1 [Example 140] | – | 1000 to 10000 nM | 1000 to 10000 nM | 100 to 1000 nM
21 | COC(=O)c1cnc(N2CCN(c3nnc(Cc4ccccc4)c4ccccc34)C[C@H]2C)cn1 [Example 145, (R)-4-(4-Benzyl-phthalazin-1-yl)-2-methyl-3,4,5,6-tetrahydro-2H-[1,2′]bipyrazinyl-5′-carboxylic acid methyl ester] | < 100 nM | 100 to 1000 nM | < 100 nM | –
22 | CC(=O)c1cnc(N2CCN(c3nnc(Cc4ccccc4)c4ccccc34)CC2)cn1 [Example 153] | – | 100 to 1000 nM | < 100 nM | < 100 nM
23 | OCc1ccc(N2CCN(c3nnc(Cc4ccccc4)c4ccccc34)CC2)nc1 [Example 158] | – | 1000 to 10000 nM | 100 to 1000 nM | 100 to 1000 nM
24 | CN(C)C(=O)c1ccc(N2CCN(c3nnc(Cc4ccc(F)cc4F)c4ccccc34)CC2)nc1 [Example 202] | – | 100 to 1000 nM | < 100 nM | < 100 nM
25 | CS(=O)(=O)NCc1ccc(N2CCN(c3nnc(Cc4ccccc4)c4ccccc34)CC2)nc1 [Example 205] | – | 100 to 1000 nM | 100 to 1000 nM | < 100 nM
26 | CNC(=O)NCc1ccc(N2CCN(c3nnc(Cc4ccccc4)c4ccccc34)CC2)nc1 [Example 206] | – | 100 to 1000 nM | < 100 nM | 100 to 1000 nM
27 | CC(=O)Nc1ccc(N2CCN(c3nnc(Cc4ccccc4)c4ccccc34)CC2)nc1 [Example 236] | – | 100 to 1000 nM | 100 to 1000 nM | 100 to 1000 nM
28 | CC(=O)Nc1cnc(N2CCN(c3nnc(Cc4ccccc4)c4ccccc34)CC2)nc1 [Example 237, N-{2-[4-(4-Benzyl-phthalazin-1-yl)-piperazin-1-yl]-pyrimidin-5-yl}-acetamide] | – | 100 to 1000 nM | 100 to 1000 nM | 100 to 1000 nM

Second part, the compound after the results:

Row | IC50 [1] | IC50 [2, 4] | IC50 [2, 5] | IC50 [3] | SMILES
29 | < 100 nM | < 100 nM | < 100 nM | < 100 nM | CC(C)(O)c1ccc(N2CCN(c3nnc(Cc4ccccc4)c4ccccc34)CC2)nc1 [Example 54a, 2-{6-[4-(4-Benzyl-phthalazin-1-yl)-piperazin-1-yl]-pyridin-3-yl}-propan-2-ol]
30 | 100 to 1000 nM | 100 to 1000 nM | < 100 nM | 100 to 1000 nM | CN(C)C(=O)c1cnc(N2CCN(c3nnc(Cc4ccccc4)c4ccccc34)CC2)nc1 [Example 54aa]
31 | 100 to 1000 nM | 100 to 1000 nM | < 100 nM | < 100 nM | O=C(c1cnc(N2CCN(c3nnc(Cc4ccccc4)c4ccccc34)CC2)nc1)N1CCOCC1 [Example 54bb]
32 | 100 to 1000 nM | 100 to 1000 nM | < 100 nM | 100 to 1000 nM | CN(CCO)C(=O)c1cnc(N2CCN(c3nnc(Cc4ccccc4)c4ccccc34)CC2)nc1 [Example 54cc]
33 | < 100 nM | < 100 nM | < 100 nM | < 100 nM | CCN(CCO)C(=O)c1ccc(N2CCN(c3nnc(Cc4ccccc4)c4ccccc34)CC2)nc1 [Example 54d]
34 | – | 100 to 1000 nM | 100 to 1000 nM | 100 to 1000 nM | COCCNC(=O)c1ccc(N2CCN(c3nnc(Cc4ccccc4)c4ccccc34)CC2)nc1 [Example 54f]
35 | – | 100 to 1000 nM | < 100 nM | 100 to 1000 nM | COCCN(C)C(=O)c1ccc(N2CCN(c3nnc(Cc4ccccc4)c4ccccc34)CC2)nc1 [Example 54g]
36 | 1000 to 10000 nM | 1000 to 10000 nM | 100 to 1000 nM | 100 to 1000 nM | CN1CCN(C(=O)c2ccc(N3CCN(c4nnc(Cc5ccccc5)c5ccccc45)CC3)nc2)CC1 [Example 54i]
37 | 100 to 1000 nM | 100 to 1000 nM | < 100 nM | < 100 nM | O=C(c1ccc(N2CCN(c3nnc(Cc4ccccc4)c4ccccc34)CC2)nc1)N1CCOCC1 [Example 54k]
38 | – | 100 to 1000 nM | < 100 nM | < 100 nM | O=C(NCc1ccccc1)c1ccc(N2CCN(c3nnc(Cc4ccccc4)c4ccccc34)CC2)nc1 [Example 54l]
39 | – | 100 to 1000 nM | < 100 nM | < 100 nM | O=C(NCC1CCCCC1)c1ccc(N2CCN(c3nnc(Cc4ccccc4)c4ccccc34)CC2)nc1 [Example 54m]
40 | – | 100 to 1000 nM | < 100 nM | < 100 nM | CCCNC(=O)c1ccc(N2CCN(c3nnc(Cc4ccccc4)c4ccccc34)CC2)nc1 [Example 54n]
41 | – | 100 to 1000 nM | < 100 nM | 100 to 1000 nM | O=C(c1ccc(N2CCN(c3nnc(Cc4ccccc4)c4ccccc34)CC2)nc1)N1CCC(O)C1 (stereo not drawn) [Example 54o]
42 | – | 100 to 1000 nM | < 100 nM | < 100 nM | O=C(c1ccc(N2CCN(c3nnc(Cc4ccccc4)c4ccccc34)CC2)nc1)N1CCSC1 [Example 54p]
43 | 100 to 1000 nM | 100 to 1000 nM | < 100 nM | 100 to 1000 nM | O=C(c1ccc(N2CCN(c3nnc(Cc4ccccc4)c4ccccc34)CC2)nc1)N1CC[S+]([O-])C1 (stereo not drawn) [Example 54q]
44 | 100 to 1000 nM | 100 to 1000 nM | 100 to 1000 nM | < 100 nM | COC(=O)CNC(=O)c1ccc(N2CCN(c3nnc(Cc4ccccc4)c4ccccc34)CC2)nc1 [Example 54r]
45 | 100 to 1000 nM | 100 to 1000 nM | < 100 nM | < 100 nM | CN(C)C(=O)c1ccc(N2CCN(c3nnc(Cc4ccccc4)c4ccccc34)CC2)nc1 [Example 54s]
46 | 100 to 1000 nM | 100 to 1000 nM | < 100 nM | < 100 nM | CN(CCCO)C(=O)c1ccc(N2CCN(c3nnc(Cc4ccccc4)c4ccccc34)CC2)nc1 [Example 54t]
47 | 100 to 1000 nM | 100 to 1000 nM | < 100 nM | < 100 nM | CC(C)(O)CNC(=O)c1ccc(N2CCN(c3nnc(Cc4ccccc4)c4ccccc34)CC2)nc1 [Example 54u]
48 | – | 100 to 1000 nM | 100 to 1000 nM | < 100 nM | Cc1c(Cc2ccc(F)cc2)nnc(N2CCN(c3ccc(C#N)cn3)CC2)c1C [Example 93a]
